# Experimental data reported in ChEMBL document CHEMBL1141762, “Morphinane alkaloids with cell protective effects from Sinomenium acutum” (J Nat Prod, 2005).
# Active and inactive are the calls of the source. The rule behind the calls is not given here.
# Tested on: PC-12
# Assay: Cell protective activity against rat PC12 cells assessed as protection against H2O2-induced injury
# Format: functional, cell-based
row,SMILES,Activity
1,COC1=C[C@H]2[C@H]3Cc4ccc(OC)c(O)c4[C@@]2(CCN3)C[C@@H]1O,Active
2,COC1=C[C@H]2[C@H]3Cc4ccc(OC)c(O)c4[C@@]2(CCN3)CC1=O,Active
3,COC1=C[C@]23CCN(C)[C@H](Cc4ccc(OC)c(O)c42)C3=CC1=O,Active
